Measured values reported in paper PMC10748060, “In Silico and In Vitro Evaluation of the Mechanism of Action of Three VX809-Based Hybrid Derivatives as Correctors of the F508del CFTR Protein” (Pharmaceuticals, 2023).
pEC50: −log10 of the molar value. “Also recorded” adds a separate entry of the source.

Columns and labels:
[1] = biological target: T1, F508del CFTR (Homo sapiens, UniProt P13569, DEL508-508); assay: YFP functional assay in CFBE41O^− cells
Experimental: (§3) The YFP functional assay was applied to assess whether the increase in protein expression induced by treatment with the compounds under investigation correlated with an increase in F508del CFTR channel activity.
(§4) Cells were then incubated with 60 µL PBS plus forskolin (20 µM) and VX-770 (1 µM) for 25 min to maximally stimulate F508del-CFTR. The cells were then transferred to a microplate reader (Tristar2 S, Berthold Technologies, Bad Wildbad, Germany) equipped with 485 nm excitation and 535 nm emission filters.
(§5) Iodide influx was detected as fluorescence quenching as the I^− anion bound to intracellular YFP. After background subtraction and normalisation to the average fluorescence before NaI addition, the initial fluorescence decay rate (QR) was derived by fitting the signal with an exponential function.

[2] = tested on: HEK-t cells; type: cell-based; set-up: TDMax (maximum toxicity): unit not given here; settings: 24 h incubation, mean ± SEM
Experimental: (§1) In both cases, media were supplemented with 10% FBS, 2 mM L-Glutamine, 1% PenStrep (100 U/mL), 1 mg/mL geneticin (G418), and 0.6 mg/mL zeocin as selection agents. Cells were grown under standard CO2 and temperature conditions. Confluence of cell was avoided to prevent loss of differentiation.
(§2) Cells were seeded into 48-well plates at a concentration of 0.3 × 10^5 cells per well. […] After exposition, cells were trypsinised and harvested for toxicity evaluation. To avoid an underestimation of the number of dead cells, the cells that were detached from the plates during exposure to the compounds were collected and considered. For each condition tested, at least four technical replicates were evaluated. In each well, at least 100 cells were considered.

[3] = biological target: T1, F508del CFTR; assay: YFP functional assay in FRT cells
Experimental: as §3, §4, §5

[4] = biological target: F508del NBD1 (Homo sapiens, UniProt P13569, DEL508-508); assay: Cycloheximide chase assay of F508del NBD1 in HEK-t cells; settings: for effect on stability / half-life of F508del NBD1 versus DMSO control: cycloheximide chase, result in words; for F508del NBD1 expression after cycloheximide, relative to time 0: 3 µM VX661/VX445, 2 µM 2a/7m/7a, mean ± sem
Experimental: The stability of NBD1-F508del was evaluated according to a previously established procedure [38, 50, 51]. […] Cells were harvested at six different time points (after 0, 1, 2, 4, 6, and 8 h), and samples of whole-cell SDS extracts were subjected to immunoblot analysis.

[5] = tested on: FRT cells; type: cell-based; settings: 24 h incubation, mean ± SEM
Experimental: as §1, §2

[6] = tested on: CFBE41O^− cells; type: cell-based; settings: 24 h incubation, mean ± SEM
Experimental: as §1, §2

[7] = Trypan blue cell viability at the working concentrations, all three cell lines; type: cell-based; settings: human (HEK-t, CFBE41O^−) and rat (FRT), in all three cell lines; for viability at 24 h, 3 µM: at 3 μM
Experimental: as §1, §2

[8] = biological target: MSD1 CFTR domain (Homo sapiens, UniProt P13569); assay: Western blot of CFTR single domain MSD1 in HEK-t cells; settings: 3 µM VX661, 3 µM VX445, 2 µM 2a, 7m, 7a, normalised to actin and to untreated domain (times of DMSO control), mean ± sem
[9] = biological target: T1, F508del CFTR; set-up: Assessing the Impact of Corrector Combinations on Full-Length F508del CFTR Function; expressed in transfected cells; host or cells: Fisher rat thyroid (FRT) cells; human bronchial epithelial CFBE41o- cells; settings: Figure 1B; read-out: corrector half-maximal effective concentration (EC50); cited from earlier work
[10] = biological target: R domain of CFTR (Homo sapiens, UniProt P13569); assay: Western blot of CFTR R domain in HEK-t cells; settings: 3 µM VX661, 3 µM VX445, 2 µM 2a, 7m, 7a, normalised to actin and to untreated domain, mean ± sem
[11] = biological target: WT NBD1 CFTR domain (Homo sapiens, UniProt P13569); assay: Western blot of CFTR single domain WT NBD1 in HEK-t cells; settings: 3 µM VX661, 3 µM VX445, 2 µM 2a, 7m, 7a, normalised to actin and to untreated domain, mean ± sem
[12] = 3 μM VX661, 3 μM VX445, 2 μM 2a, 7m, 7a, 18 h, forskolin + VX-770 stimulation

T1 sequence (P13569 with tags, fused parts or gaps DEL508-508): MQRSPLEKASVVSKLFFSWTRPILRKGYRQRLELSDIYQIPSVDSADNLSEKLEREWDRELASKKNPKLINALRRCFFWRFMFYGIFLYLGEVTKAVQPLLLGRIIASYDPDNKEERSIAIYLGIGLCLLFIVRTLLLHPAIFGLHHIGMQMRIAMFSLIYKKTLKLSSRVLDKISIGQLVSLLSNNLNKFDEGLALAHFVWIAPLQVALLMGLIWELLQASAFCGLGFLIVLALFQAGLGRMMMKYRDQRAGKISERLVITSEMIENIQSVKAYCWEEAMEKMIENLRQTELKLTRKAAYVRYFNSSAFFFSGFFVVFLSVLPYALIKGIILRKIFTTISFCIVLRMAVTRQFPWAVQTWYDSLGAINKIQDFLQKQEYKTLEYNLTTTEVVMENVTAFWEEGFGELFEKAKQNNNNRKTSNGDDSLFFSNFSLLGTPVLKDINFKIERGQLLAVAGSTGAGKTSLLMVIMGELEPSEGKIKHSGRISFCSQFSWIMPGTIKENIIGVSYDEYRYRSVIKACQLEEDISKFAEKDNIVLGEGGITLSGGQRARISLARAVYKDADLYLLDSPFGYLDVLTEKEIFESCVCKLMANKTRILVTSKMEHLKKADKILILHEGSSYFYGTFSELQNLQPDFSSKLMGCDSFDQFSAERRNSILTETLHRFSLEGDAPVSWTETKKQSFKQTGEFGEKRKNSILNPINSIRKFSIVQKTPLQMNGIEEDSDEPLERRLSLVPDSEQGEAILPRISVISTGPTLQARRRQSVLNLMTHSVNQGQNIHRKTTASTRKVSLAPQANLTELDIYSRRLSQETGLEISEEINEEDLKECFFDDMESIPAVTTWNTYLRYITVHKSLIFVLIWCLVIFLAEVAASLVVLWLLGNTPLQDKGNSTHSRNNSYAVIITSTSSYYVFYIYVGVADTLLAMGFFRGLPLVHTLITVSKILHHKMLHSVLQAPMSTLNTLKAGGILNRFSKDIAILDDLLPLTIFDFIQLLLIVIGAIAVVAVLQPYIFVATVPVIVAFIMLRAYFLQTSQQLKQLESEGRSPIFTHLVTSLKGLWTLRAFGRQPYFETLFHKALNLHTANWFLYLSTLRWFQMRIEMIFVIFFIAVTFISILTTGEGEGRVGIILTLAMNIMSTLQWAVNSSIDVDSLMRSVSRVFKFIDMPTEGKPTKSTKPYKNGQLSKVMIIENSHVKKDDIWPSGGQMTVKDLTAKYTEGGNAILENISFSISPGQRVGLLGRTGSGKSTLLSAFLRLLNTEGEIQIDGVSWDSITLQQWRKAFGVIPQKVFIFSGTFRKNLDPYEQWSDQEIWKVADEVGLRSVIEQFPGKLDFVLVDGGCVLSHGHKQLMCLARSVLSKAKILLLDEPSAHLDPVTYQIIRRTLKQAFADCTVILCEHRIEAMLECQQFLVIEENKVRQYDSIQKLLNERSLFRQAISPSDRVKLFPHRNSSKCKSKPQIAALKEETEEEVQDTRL
Chain of F508del NBD1 (P13569 with tags, fused parts or gaps DEL508-508): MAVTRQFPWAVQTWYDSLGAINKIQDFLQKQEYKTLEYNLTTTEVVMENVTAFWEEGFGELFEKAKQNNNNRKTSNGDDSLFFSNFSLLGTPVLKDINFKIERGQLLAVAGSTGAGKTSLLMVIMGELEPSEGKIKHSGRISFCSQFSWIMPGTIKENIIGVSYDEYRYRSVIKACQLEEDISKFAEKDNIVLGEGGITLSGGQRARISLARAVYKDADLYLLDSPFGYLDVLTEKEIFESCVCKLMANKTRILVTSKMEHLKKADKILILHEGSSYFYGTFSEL
Chain of WT NBD1 CFTR domain (P13569 348-633): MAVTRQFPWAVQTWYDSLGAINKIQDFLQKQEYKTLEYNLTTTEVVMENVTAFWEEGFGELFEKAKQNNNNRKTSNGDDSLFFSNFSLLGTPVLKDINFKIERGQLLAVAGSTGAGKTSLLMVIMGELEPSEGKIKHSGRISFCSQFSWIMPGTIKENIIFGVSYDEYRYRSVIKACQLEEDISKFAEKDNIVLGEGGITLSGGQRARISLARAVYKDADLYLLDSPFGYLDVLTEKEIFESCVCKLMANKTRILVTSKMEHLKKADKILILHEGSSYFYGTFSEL
Chain of R domain of CFTR (P13569 645-834): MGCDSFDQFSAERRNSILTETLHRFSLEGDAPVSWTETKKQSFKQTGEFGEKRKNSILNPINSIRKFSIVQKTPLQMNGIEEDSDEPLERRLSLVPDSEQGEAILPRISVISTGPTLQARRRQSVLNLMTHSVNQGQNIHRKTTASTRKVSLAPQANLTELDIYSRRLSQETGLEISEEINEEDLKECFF
Chain of MSD1 CFTR domain (P13569 1-388): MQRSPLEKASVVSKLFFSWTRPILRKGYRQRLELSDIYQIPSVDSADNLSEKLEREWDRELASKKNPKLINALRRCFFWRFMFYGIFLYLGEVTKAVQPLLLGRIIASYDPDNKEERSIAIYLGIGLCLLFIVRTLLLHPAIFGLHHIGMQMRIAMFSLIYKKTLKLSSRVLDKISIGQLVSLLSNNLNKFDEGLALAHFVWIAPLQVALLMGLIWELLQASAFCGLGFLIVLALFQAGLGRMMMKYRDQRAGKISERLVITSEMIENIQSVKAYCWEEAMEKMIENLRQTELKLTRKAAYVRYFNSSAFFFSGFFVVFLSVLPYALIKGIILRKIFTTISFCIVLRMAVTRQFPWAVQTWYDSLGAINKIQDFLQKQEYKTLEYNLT

| SMILES | TD50 (concentration required to achieve half maximum toxicity) [2] | F508del NBD1 expression level, % of the initial level ([4]; 2 h after cycloheximide) | F508del NBD1 expression level, % of the initial level ([4]; 4 h after cycloheximide) | F508del NBD1 expression level, % of the initial level ([4]; 6 h after cycloheximide) | effect on stability / half-life of F508del NBD1 versus DMSO control [4] | F508del NBD1 expression after cycloheximide, relative to time 0 ([4]; time 0 h) | F508del NBD1 expression after cycloheximide, relative to time 0 ([4]; time 1 h) | F508del NBD1 expression after cycloheximide, relative to time 0 ([4]; time 2 h) | F508del NBD1 expression after cycloheximide, relative to time 0 ([4]; time 4 h) | F508del NBD1 expression after cycloheximide, relative to time 0 ([4]; time 6 h) | F508del NBD1 expression after cycloheximide, relative to time 0 ([4]; time 8 h) | TD50 (concentration required to achieve half maximum toxicity) [5] | TDMax (maximum toxicity) [5] | TD50 (concentration required to achieve half maximum toxicity) [6] | TDMax (maximum toxicity) [6] | R domain expression level [10] | WT NBD1 expression level [11] | viability at 24 h, 3 µM [7] | further results |
| --- | --- | --- | --- | --- | --- | --- | --- | --- | --- | --- | --- | --- | --- | --- | --- | --- | --- | --- | --- |
| O=C(c1ccccc1)c1sc(NC(=O)C2(c3ccc4c(c3)OCO4)CC2)nc1-c1ccccc1 [2a] | 2.44 ± 1.03 µM | 78% | 63% | 45% | significant increase; also recorded: significantly higher | 1.00 ± 0.08 | 0.87 ± 0.05 | 0.78 ± 0.08 | 0.63 ± 0.03 | 0.45± 0.06 | 0.34 ± 0.03 | 9.24 ± 2.25 µM | 20.56 ± 0.06 µM | 10.11 ± 1.80 µM | 14.44 ± 0.06 µM | – | – | – | increase of YFP initial quenching rate (QR, iodide influx) over the control condition [1, 12]: significantly increased; F508del CFTR channel activity (QR) of double combinations with VX445, compared with VX445 alone ([1]; result in words): none of the combinations with compound 2a produced an effect greater; F508del CFTR channel activity (QR) of double combinations with VX661, compared with VX661 alone ([1]; result in words): none of the combinations with compound 2a produced an effect greater; TDMax (maximum toxicity) [2]: 5.78 ± 0.04; increase of YFP initial quenching rate (QR, iodide influx) over the control condition [3, 12]: significantly increased; F508del CFTR channel activity (QR) of double combinations with VX445, compared with VX445 alone ([3]; result in words): none of the combinations with compound 2a produced an effect greater; F508del CFTR channel activity (QR) of double combinations with VX661, compared with VX661 alone ([3]; result in words): none of the combinations with compound 2a produced an effect greater; viability at 24 h, 2 µM ([7]; at 2 μM): ≥ 90%; MSD1 expression level [8]: 1.04 ± 0.05 |
| CSc1cccc(Nc2nc(-c3cccc(Cl)c3)cs2)c1 [FCG] | – | – | – | – | – | – | – | – | – | – | – | – | – | – | – | – | – | – | pEC50 [9]: 5.28 |
| Cc1nn(C)cc1S(=O)(=O)NC(=O)c1ccc(-n2ccc(OCC(C)(C)C(F)(F)F)n2)nc1N1C[C@@H](C)CC1(C)C [VX445, elexacaftor] | 9.60 ± 2.25 µM | 65% | 42% | 27% | did not prolong the half-life | 1.00 ± 0.04 | 0.75 ± 0.12 | 0.65 ± 0.07 | 0.42 ± 0.09 | 0.27 ± 0.05 | 0.14 ± 0.03 | 4.29 ± 0.32 µM | 10.79 ± 0.01 µM | 11.75 ± 3.42 µM | 23.60 ± 0.07 µM | 1.01 ± 0.04 | 1.02 ± 0.18 | ≥ 90% | – |
| CC(C)(CO)c1cc2cc(NC(=O)C3(c4ccc5c(c4)OC(F)(F)O5)CC3)c(F)cc2n1C[C@@H](O)CO [VX661, tezacaftor] | 27.15 ± 17.88 µM | 62% | 45% | 26% | did not prolong the half-life | 1.00 ± 0.02 | 0.73 ± 0.12 | 0.62 ± 0.13 | 0.45 ± 0.11 | 0.26 ± 0.08 | 0.09 ± 0.03 | 11.09 ± 3.22 µM | 23.59 ± 0.08 µM | 7.51 ± 2.22 µM | 15.62 ± 0.06 µM | 1.06± 0.09 | 1.00± 0.15 | ≥ 90% | – |
